{"source": "patent US6525001B1", "about": "“Substituted pyrimidine and pyridine herbicides” (Mid-American Commercialization Corporation, priority 1997, dated 2003)", "assay_type_in_all_cases": "in vivo", "key": {"[1]": {"test_system": "arrowleaf sida (Sida rhombifolia)", "test": "Test C", "parameters": "key: 0 was no effect; 100 was complete control", "settings": "PREEMERGENCE"}, "[2]": {"test_system": "cocklebur (Xanthium strumarium)", "test": "Test C", "parameters": "key: 0 was no effect; 100 was complete control", "settings": "PREEMERGENCE"}, "corn (Zea mays)": {"test_system": "corn (Zea mays)", "test": "Test C", "parameters": "key: 0 was no effect; 100 was complete control", "settings": "PREEMERGENCE"}, "[3]": {"test_system": "hairy beggarticks (Bidens pilosa)", "test": "Test C", "parameters": "key: 0 was no effect; 100 was complete control", "settings": "PREEMERGENCE"}, "[4]": {"test_system": "ivyleaf morningglory (Ipomoea hederacea)", "test": "Test C", "parameters": "key: 0 was no effect; 100 was complete control", "settings": "PREEMERGENCE"}, "[5]": {"test_system": "large crabgrass (Digitaria sanguinalis)", "test": "Test C", "parameters": "key: 0 was no effect; 100 was complete control", "settings": "PREEMERGENCE"}, "[6]": {"test_system": "purple nutsedge (Cyperus rotundus)", "test": "Test C", "parameters": "key: 0 was no effect; 100 was complete control", "settings": "PREEMERGENCE"}, "soybean (Glycine max)": {"test_system": "soybean (Glycine max)", "test": "Test C", "parameters": "key: 0 was no effect; 100 was complete control", "settings": "PREEMERGENCE"}, "[7]": {"test_system": "purple nutsedge (Cyperus rotundus)", "test": "Test E pre-/postemergence/post directed", "parameters": "key: 0 is no injury; 100 is complete control", "how_it_was_run": "(§1)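 Greenhouse pot-grown plants; compound in non-phytotoxic solvent with surfactant applied preemergence to soil within one day of planting, postemergence at two to four leaf stage (three to twenty cm), or post-directed to plant base and soil. Visual injury rated 13 to 21 days after application, 0 (none) to 100 (complete control).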"}, "[8]": {"test_system": "sandbur (Cenchrus echinatus)", "test": "Test E pre-/postemergence/post directed", "parameters": "key: 0 is no injury; 100 is complete control", "settings": "PREEMERGENCE, Rate 32 g/ha", "how_it_was_run": "as §1"}, "[9]": {"test_system": "Spanishneedles (Bidens bipinnata)", "test": "Test E pre-/postemergence/post directed", "how_it_was_run": "as §1"}, "[10]": {"test_system": "alexandergrass (Brachiaria plantaginea)", "test": "Test E pre-/postemergence/post directed", "how_it_was_run": "as §1"}, "[11]": {"test_system": "bermudagrass (Cynodon dactylon)", "test": "Test E pre-/postemergence/post directed", "how_it_was_run": "as §1"}, "[12]": {"test_system": "common groundsel (Senecio vulgaris)", "test": "Test E pre-/postemergence/post directed", "settings": "PREEMERGENCE", "how_it_was_run": "as §1"}, "[13]": {"test_system": "common ragweed (Ambrosia elatior)", "test": "Test E pre-/postemergence/post directed", "how_it_was_run": "as §1"}, "[14]": {"test_system": "itchgrass (Rottboellia exaltata)", "test": "Test E pre-/postemergence/post directed", "how_it_was_run": "as §1"}, "[15]": {"test_system": "johnson grass (Sorghum halepense)", "test": "Test E pre-/postemergence/post directed", "how_it_was_run": "as §1"}, "[16]": {"test_system": "large crabgrass (Digitaria sanguinalis)", "test": "Test E pre-/postemergence/post directed", "how_it_was_run": "as §1"}, "[17]": {"test_system": "pitted morningglory (Ipomoea lacunosa)", "test": "Test E pre-/postemergence/post directed", "how_it_was_run": "as §1"}, "[18]": {"test_system": "sandbur (Cenchrus echinatus)", "test": "Test E pre-/postemergence/post directed", "how_it_was_run": "as §1"}, "[19]": {"test_system": "surinam grass (Brachiaria decumbens)", "test": "Test E pre-/postemergence/post directed", "how_it_was_run": "as §1"}}}
{"molecule": "Cc1cnc(-n2ccc(C(F)(F)F)n2)nc1Cn1ccc(C(F)(F)F)n1", "note": "[Compound 52]", "values": [{"measurement": "Plant response rating, Arrowleaf sida", "setting": "[1]; Rate 35 g/ha", "result": 100}, {"measurement": "Plant response rating, Arrowleaf sida", "setting": "[1]; Rate 70 g/ha", "result": 100}, {"measurement": "Plant response rating, Arrowleaf sida", "setting": "[1]; Rate 140 g/ha", "result": 100}, {"measurement": "Plant response rating, Cocklebur", "setting": "[2]; Rate 70 g/ha", "result": 0}, {"measurement": "Plant response rating, Cocklebur", "setting": "[2]; Rate 140 g/ha", "result": 20}, {"measurement": "Plant response rating, Corn", "setting": "corn (Zea mays); Rate 35 g/ha", "result": 0}, {"measurement": "Plant response rating, Corn", "setting": "corn (Zea mays); Rate 70 g/ha", "result": 45}, {"measurement": "Plant response rating, Corn", "setting": "corn (Zea mays); Rate 140 g/ha", "result": 50}, {"measurement": "Plant response rating, H. beggarticks", "setting": "[3]; Rate 35 g/ha", "result": 0}, {"measurement": "Plant response rating, H. beggarticks", "setting": "[3]; Rate 70 g/ha", "result": 0}, {"measurement": "Plant response rating, H. beggarticks", "setting": "[3]; Rate 140 g/ha", "result": 30}, {"measurement": "Plant response rating, I. morningglory", "setting": "[4]; Rate 35 g/ha", "result": 5}, {"measurement": "Plant response rating, I. morningglory", "setting": "[4]; Rate 70 g/ha", "result": 100}, {"measurement": "Plant response rating, I. morningglory", "setting": "[4]; Rate 140 g/ha", "result": 100}, {"measurement": "Plant response rating, Large crabgrass", "setting": "[5]; Rate 35 g/ha", "result": 100}, {"measurement": "Plant response rating, Large crabgrass", "setting": "[5]; Rate 70 g/ha", "result": 100}, {"measurement": "Plant response rating, Large crabgrass", "setting": "[5]; Rate 140 g/ha", "result": 100}, {"measurement": "Plant response rating, Purple nutsedge", "setting": "[6]; Rate 35 g/ha", "result": 0}, {"measurement": "Plant response rating, Purple nutsedge", "setting": "[6]; Rate 70 g/ha", "result": 5}, {"measurement": "Plant response rating, Purple nutsedge", "setting": "[6]; Rate 140 g/ha", "result": 10}, {"measurement": "Plant response rating, Soybean", "setting": "soybean (Glycine max); Rate 35 g/ha", "result": 0}, {"measurement": "Plant response rating, Soybean", "setting": "soybean (Glycine max); Rate 70 g/ha", "result": 55}, {"measurement": "Plant response rating, Soybean", "setting": "soybean (Glycine max); Rate 140 g/ha", "result": 70}, {"measurement": "Plant response rating, Purple nutsedge", "setting": "[7]; POSTEMERGENCE, Rate 125 g/ha", "result": 40}, {"measurement": "Plant response rating, Purple nutsedge", "setting": "[7]; POSTEMERGENCE, Rate 250 g/ha", "result": 50}, {"measurement": "Plant response rating, Purple nutsedge", "setting": "[7]; PREEMERGENCE, Rate 32 g/ha", "result": 5}, {"measurement": "Plant response rating, Purple nutsedge", "setting": "[7]; PREEMERGENCE, Rate 64 g/ha", "result": 30}, {"measurement": "Plant response rating, Purple nutsedge", "setting": "[7]; PREEMERGENCE, Rate 125 g/ha", "result": 50}, {"measurement": "Plant response rating, Sandbur", "setting": "[8]", "result": 0}, {"measurement": "Plant response rating, Spanishneedles", "setting": "[9]; POSTEMERGENCE, Rate 125 g/ha", "result": 65}, {"measurement": "Plant response rating, Spanishneedles", "setting": "[9]; POSTEMERGENCE, Rate 250 g/ha", "result": 60}, {"measurement": "Plant response rating, Spanishneedles", "setting": "[9]; PREEMERGENCE, Rate 32 g/ha", "result": 20}, {"measurement": "Plant response rating, Spanishneedles", "setting": "[9]; PREEMERGENCE, Rate 64 g/ha", "result": 20}, {"measurement": "Plant response rating, Spanishneedles", "setting": "[9]; PREEMERGENCE, Rate 125 g/ha", "result": 35}, {"measurement": "Plant response rating, Alexandergrass", "setting": "[10]; POSTEMERGENCE, Rate 125 g/ha", "result": 10}, {"measurement": "Plant response rating, Alexandergrass", "setting": "[10]; POSTEMERGENCE, Rate 250 g/ha", "result": 75}, {"measurement": "Plant response rating, Alexandergrass", "setting": "[10]; PREEMERGENCE, Rate 32 g/ha", "result": 20}, {"measurement": "Plant response rating, Alexandergrass", "setting": "[10]; PREEMERGENCE, Rate 64 g/ha", "result": 75}, {"measurement": "Plant response rating, Alexandergrass", "setting": "[10]; PREEMERGENCE, Rate 125 g/ha", "result": 75}, {"measurement": "Plant response rating, Bermudagrass", "setting": "[11]; POSTEMERGENCE, Rate 125 g/ha", "result": 35}, {"measurement": "Plant response rating, Bermudagrass", "setting": "[11]; POSTEMERGENCE, Rate 250 g/ha", "result": 35}, {"measurement": "Plant response rating, Bermudagrass", "setting": "[11]; PREEMERGENCE, Rate 32 g/ha", "result": 70}, {"measurement": "Plant response rating, Bermudagrass", "setting": "[11]; PREEMERGENCE, Rate 64 g/ha", "result": 90}, {"measurement": "Plant response rating, Com. groundsel", "setting": "[12]; Rate 32 g/ha", "result": 35}, {"measurement": "Plant response rating, Com. groundsel", "setting": "[12]; Rate 64 g/ha", "result": 98}, {"measurement": "Plant response rating, Com. ragweed", "setting": "[13]; POSTEMERGENCE, Rate 125 g/ha", "result": 50}, {"measurement": "Plant response rating, Com. ragweed", "setting": "[13]; POSTEMERGENCE, Rate 250 g/ha", "result": 80}, {"measurement": "Plant response rating, Com. ragweed", "setting": "[13]; PREEMERGENCE, Rate 32 g/ha", "result": 35}, {"measurement": "Plant response rating, Com. ragweed", "setting": "[13]; PREEMERGENCE, Rate 64 g/ha", "result": 80}, {"measurement": "Plant response rating, Itchgrass", "setting": "[14]; POSTEMERGENCE, Rate 125 g/ha", "result": 35}, {"measurement": "Plant response rating, Itchgrass", "setting": "[14]; POSTEMERGENCE, Rate 250 g/ha", "result": 40}, {"measurement": "Plant response rating, Itchgrass", "setting": "[14]; PREEMERGENCE, Rate 32 g/ha", "result": 35}, {"measurement": "Plant response rating, Itchgrass", "setting": "[14]; PREEMERGENCE, Rate 64 g/ha", "result": 70}, {"measurement": "Plant response rating, Itchgrass", "setting": "[14]; PREEMERGENCE, Rate 125 g/ha", "result": 80}, {"measurement": "Plant response rating, Johnsongrass", "setting": "[15]; POSTEMERGENCE, Rate 125 g/ha", "result": 35}, {"measurement": "Plant response rating, Johnsongrass", "setting": "[15]; POSTEMERGENCE, Rate 250 g/ha", "result": 20}, {"measurement": "Plant response rating, Johnsongrass", "setting": "[15]; PREEMERGENCE, Rate 64 g/ha", "result": 50}, {"measurement": "Plant response rating, Johnsongrass", "setting": "[15]; PREEMERGENCE, Rate 125 g/ha", "result": 75}, {"measurement": "Plant response rating, Large crabgrass", "setting": "[16]; POSTEMERGENCE, Rate 125 g/ha", "result": 5}, {"measurement": "Plant response rating, Large crabgrass", "setting": "[16]; POSTEMERGENCE, Rate 250 g/ha", "result": 80}, {"measurement": "Plant response rating, Large crabgrass", "setting": "[16]; PREEMERGENCE, Rate 32 g/ha", "result": 98}, {"measurement": "Plant response rating, P. morninglory", "setting": "[17]; POSTEMERGENCE, Rate 125 g/ha", "result": 80}, {"measurement": "Plant response rating, P. morninglory", "setting": "[17]; POSTEMERGENCE, Rate 250 g/ha", "result": 80}, {"measurement": "Plant response rating, P. morninglory", "setting": "[17]; PREEMERGENCE, Rate 32 g/ha", "result": 50}, {"measurement": "Plant response rating, Sandbur", "setting": "[18]; POSTEMERGENCE, Rate 125 g/ha", "result": 5}, {"measurement": "Plant response rating, Sandbur", "setting": "[18]; POSTEMERGENCE, Rate 250 g/ha", "result": 60}, {"measurement": "Plant response rating, Sandbur", "setting": "[18]; PREEMERGENCE, Rate 64 g/ha", "result": 10}, {"measurement": "Plant response rating, Sandbur", "setting": "[18]; PREEMERGENCE, Rate 125 g/ha", "result": 50}, {"measurement": "Plant response rating, Surinam grass", "setting": "[19]; POSTEMERGENCE, Rate 125 g/ha", "result": 75}, {"measurement": "Plant response rating, Surinam grass", "setting": "[19]; POSTEMERGENCE, Rate 250 g/ha", "result": 75}, {"measurement": "Plant response rating, Surinam grass", "setting": "[19]; PREEMERGENCE, Rate 32 g/ha", "result": 30}, {"measurement": "Plant response rating, Surinam grass", "setting": "[19]; PREEMERGENCE, Rate 64 g/ha", "result": 70}, {"measurement": "Plant response rating, Surinam grass", "setting": "[19]; PREEMERGENCE, Rate 125 g/ha", "result": 80}]}
